Source: US10662475B2, “Compositions and methods for the treatment and prevention of antipsychotic medication-induced weight gain” (Centre for Addiction and Mental Health, priority 2014, dated 2020)

Legend:
[1] = adjunct treatment, human studies; cited from earlier work
GLP-1 = details: rat models; effects seem to occur after a longer treatment period; cited from earlier work
[2] = for weight gain (% change from baseline weight): total sample, European ancestry subjects with schizophrenia or schizoaffective disorder, by antipsychotic, mean ± SD
Protocol: Our sample comprised 66 European ancestry subjects aged 18-60 years with schizophrenia or schizoaffective disorder according to Diagnostic and Statistical Manual of Mental Disorders, Third Edition, Revised, or Fourth Edition (DSM-IIIR or DSM-IV) criteria.
Patients with a history of treatment refractory schizophrenia or schizoaffective disorder, or intolerance to typical antipsychotics, were treated with clozapine for 6 weeks and assessed for response and weight gain. These patients had never received a second generation antipsychotic prior to enrollment in the study, and underwent a 7-14 day washout period where they received no antipsychotic medication prior to receiving clozapine.
All analyses were done using R version 2.15.1 statistical software (R Core Team, 2012), with the rms package. Categorical variables were compared across study centres using Pearson chi-square test and continuous variables were compared using ANOVA, unless the assumptions of these tests were violated in which case Fisher's exact test and the Kruskal-Wallis test were used. Linear regression was used to test for differences in weight gain (% change from baseline weight) between genotypic groups using additive genotypic model with adjustment for relevant covariates.

[3] = Antipsychotic-induced weight change, orexin receptor (HCRTR1/HCRTR2) SNP association study; type: in vivo, human; details: Sample HYM n = 74, all on clozapine, 6 weeks
Text: Written informed consent was obtained from all participants. […] Exclusion criteria for these studies included pregnancy, organic brain disorder, severe head injuries, previous medical conditions which required treatment and were not stable (Hepatitis C, HIV, Thyroid disorder or diabetes mellitus), substance dependence, clinically relevant mental retardation and severe personality disorder.
Genomic DNA was extracted from blood samples using the high-salt method (Lahiri and Nurnberger 1991). […] A total of 5 tagSNPs covering a 20 kb region including HCRTR1 (˜9.6 kb) and 28 tagSNPs covering 120 kb including HCRTR2 (˜108 kb) were included in this study.
Analysis of covariance (ANCOVA) was used to test association between genotype and weight change (%) from baseline as the dependent variable, genotypes as fixed factor and, baseline weight and duration of treatment as covariates. Corrections for multiple tests were calculated using Single Nucleotide Polymorphism Spectral Decomposition (SNPSpD, (Nyholt 2004)). Power calculations were performed using Quanto 1.2.4 (Gauderman and Morrison 2006). Assuming a minor allele frequency of 0.25 and a sample size of n=130, we had more than 80% power to detect a mean difference of 3.6% between carriers and non-carriers of the risk genotype in an additive or dominant model.

[4] = total sample N=128, patients treated with clozapine, risperidone, olanzapine or haloperidol
TSPO = molecular target: T1, TSPO (Mus musculus, UniProt P50637); details: high-fat diet induced obese mice; cited from earlier work
T1 construct: host or cells: high-fat diet induced obese mice (in vivo)

CC(=O)[C@H]1CC[C@H]2[C@@H]3CC=C4C[C@@H](O)CC[C@]4(C)[C@H]3CC[C@]12C [pregnenolone]
symptoms of schizophrenia [1]: improves symptoms of schizophrenia

OCCOCCN1CCN(C2=Nc3ccccc3Sc3ccccc32)CC1 [quetiapine]
GLP-1 levels (GLP-1): decrease GLP-1 levels

CN1CCN(C2=Nc3cc(Cl)ccc3Nc3ccccc32)CC1 [clozapine]
Weight change ± SD (%) ([2]; Sample HYM n = 54, all on clozapine, 6 weeks): 3.84 ± 5.8%
weight gain (% change from baseline weight) [2]: 3.99%±5.8
Weight gain <7%, n (%) [3]: 47 (63.5) n (%)
Weight gain ≥7%, n (%) [3]: 27 (36.5) n (%)
Weight change ([3]; mean ± SD): 3.76 ± 4.4 kg
Weight change (%) ([3]; mean ± SD): 5.35 ± 6.3%
weight gain [4]: highest weight gain

O=C(CCCN1CCC(O)(c2ccc(Cl)cc2)CC1)c1ccc(F)cc1 [haloperidol]
weight gain (% change from baseline weight) [2]: −4.17%±15.2

CCC(C)N(C)C(=O)c1cc2ccccc2c(-c2ccccc2Cl)n1 (centres unmarked) [PK1195]
lipid accumulation in the liver, free and LDL cholesterol, and blood glucose levels (TSPO): significantly lowered
